Our source for the relative viability values is the supplement of paper PMC10307832.

Common to all, as to assay: relative viability (nuclei count vs DMSO), 5 days (fraction); higher = more cells survive
Compound in one assay: C[C@@H](C(=O)N[C@@H](C1CCCCC1)C(=O)N2CCC[C@H]2C(=O)N[C@@H]3[C@@H](CC4=CC=CC=C34)OCC#CC#CCO[C@@H]5CC6=CC=CC=C6[C@@H]5NC(=O)[C@@H]7CCCN7C(=O)[C@H](C8CCCCC8)NC(=O)[C@H](C)NC)NC [AZD5582]
The procedure, abridged: (§1)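 On vehicle-anchored 1536-well plates, lung cancer cell lines held overnight at 37 °C were pinned with five library-drug doses (not always all listed) spaced by √10. With no medium change over 5 days, they were then fixed, permeabilised and Hoechst-stained in one step and imaged at 4×. MetaXpress counted nuclei, and viability is the median across plates of treated-well over vehicle-well nuclei. Acceptance needed control CV below 25% and at least one doubling.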

Compound in another assay: Cn1nnc2c(C(N)=O)ncn2c1=O [Temozolomide]
The procedure, abridged: as §1

Compound in assay [1]: Cn1nnc2c(C(N)=O)ncn2c1=O [Temozolomide] + CC1(C)CCC(c2ccc(Cl)cc2)=C(CN2CCN(c3ccc(C(=O)NS(=O)(=O)c4ccc(N[C@H](CCN5CCOCC5)CSc5ccccc5)c(S(=O)(=O)C(F)(F)F)c4)cc3)CC2)C1 [Navitoclax] (partner 0.5 µM)
The procedure, abridged:
(§2)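 The day after seeding in 1536-well plates, lung cancer cell lines were treated by pin tool with a single drug, or with a fixed anchor-drug dose together with five library-drug doses (not always all listed) in √10 steps. After 5 days, a combined fix-and-stain solution (final 0.05% Triton X-100, 1% formaldehyde, 1 ug/ml Hoechst) was added. Nuclei counted on 4× images gave relative viability as treated counts over vehicle counts, reported as the median of duplicate plates.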

Compound in the assay “AZD5582 + Trametinib”: C[C@@H](C(=O)N[C@@H](C1CCCCC1)C(=O)N2CCC[C@H]2C(=O)N[C@@H]3[C@@H](CC4=CC=CC=C34)OCC#CC#CCO[C@@H]5CC6=CC=CC=C6[C@@H]5NC(=O)[C@@H]7CCCN7C(=O)[C@H](C8CCCCC8)NC(=O)[C@H](C)NC)NC [AZD5582] + CC(=O)Nc1cccc(-n2c(=O)n(C3CC3)c(=O)c3c(Nc4ccc(I)cc4F)n(C)c(=O)c(C)c32)c1 [Trametinib] (partner 0.02 µM)
Put shortly: as §2

On to CAL-12T, for which the relative viability with AZD5582 (0.001581 µM) was 0.647; in the assay with AZD5582 (0.005 µM), 0.724; with AZD5582 (0.01581 µM), 0.784; with AZD5582 (0.05 µM), 0.551; in the assay with Temozolomide (0.2 µM), 0.908; in the assay with Temozolomide (0.6325 µM), 1.04. Also, the relative viability in the assay with Temozolomide (2 µM) amounted to 0.959; with Temozolomide (6.325 µM), 0.95; in the assay with Temozolomide (20 µM), 0.95; in assay [1] (first compound 0.2 µM), 1.35; in assay [1] (first compound 0.6325 µM), 1.13; in assay [1] (first compound 2 µM), 1.21. Besides, the relative viability worked out at 1.29 in assay [1] (first compound 6.325 µM); 1.26 in assay [1] (first compound 20 µM); 0.31 with AZD5582 + Trametinib (first compound 0.001581 µM); 0.34 in the assay with AZD5582 + Trametinib (first compound 0.005 µM); 0.291 in the assay with AZD5582 + Trametinib (first compound 0.01581 µM); 0.216 with AZD5582 + Trametinib (first compound 0.05 µM).
Regarding HCC-44, the relative viability with AZD5582 (0.001581 µM) worked out at 0.822; with AZD5582 (0.005 µM), 0.724; with AZD5582 (0.01581 µM), 0.872; with AZD5582 (0.05 µM), 0.483; with Temozolomide (0.2 µM), 1.02; with Temozolomide (0.6325 µM), 0.986. The relative viability with Temozolomide (2 µM) turned out to be 0.987; with Temozolomide (6.325 µM), 0.999; in the assay with Temozolomide (20 µM), 1.01; in assay [1] (first compound 0.2 µM), 0.972; in assay [1] (first compound 0.6325 µM), 1.02; in assay [1] (first compound 2 µM), 0.913. Also, the relative viability in assay [1] (first compound 6.325 µM) was determined as 0.966; in assay [1] (first compound 20 µM), 0.983; with AZD5582 + Trametinib (first compound 0.001581 µM), 0.883; with AZD5582 + Trametinib (first compound 0.005 µM), 0.967; in the assay with AZD5582 + Trametinib (first compound 0.01581 µM), 1.02; in the assay with AZD5582 + Trametinib (first compound 0.05 µM), 0.878.
On to A-427, for which the relative viability in the assay with AZD5582 (0.001581 µM) came to 0.917; with AZD5582 (0.005 µM), 0.971; in the assay with AZD5582 (0.01581 µM), 0.882; with AZD5582 (0.05 µM), 0.721; with Temozolomide (0.2 µM), 1.04; in the assay with Temozolomide (0.6325 µM) it was 0.996. Besides, the relative viability with Temozolomide (2 µM) was determined as 1.03; with Temozolomide (6.325 µM), 0.713; with Temozolomide (20 µM) it was 0.46; in assay [1] (first compound 0.2 µM), 0.971; in assay [1] (first compound 0.6325 µM) it was 0.923; in assay [1] (first compound 2 µM) it was 0.949. The relative viability in assay [1] (first compound 6.325 µM) came out at 0.596; in assay [1] (first compound 20 µM) it was 0.592; in the assay with AZD5582 + Trametinib (first compound 0.001581 µM), 0.568; in the assay with AZD5582 + Trametinib (first compound 0.005 µM), 0.608; with AZD5582 + Trametinib (first compound 0.01581 µM), 0.71; with AZD5582 + Trametinib (first compound 0.05 µM), 0.566.
NCI-H1666: the relative viability came out at 0.886 with AZD5582 (0.001581 µM); 0.953 with AZD5582 (0.005 µM); 0.971 in the assay with AZD5582 (0.01581 µM); 0.94 with AZD5582 (0.05 µM); 0.92 in the assay with Temozolomide (0.2 µM); 0.994 in the assay with Temozolomide (0.6325 µM). Further, the relative viability with Temozolomide (2 µM) worked out at 0.906; in the assay with Temozolomide (6.325 µM) it was 0.751; in the assay with Temozolomide (20 µM), 0.76; in assay [1] (first compound 0.2 µM), 0.831; in assay [1] (first compound 0.6325 µM) it was 0.933; in assay [1] (first compound 2 µM) it was 0.764. In addition, the relative viability in assay [1] (first compound 6.325 µM) was found to be 0.768; in assay [1] (first compound 20 µM) it was 0.454; with AZD5582 + Trametinib (first compound 0.001581 µM), 0.959; with AZD5582 + Trametinib (first compound 0.005 µM), 0.864; with AZD5582 + Trametinib (first compound 0.01581 µM), 0.846; with AZD5582 + Trametinib (first compound 0.05 µM), 0.852.
Consider HCC-78, for which the relative viability is 0.85 with AZD5582 (0.001581 µM); 1.08 with AZD5582 (0.005 µM); 0.834 with AZD5582 (0.01581 µM); 0.746 with AZD5582 (0.05 µM); 0.762 in the assay with Temozolomide (0.2 µM); 0.937 with Temozolomide (0.6325 µM). Further, the relative viability amounted to 1.04 with Temozolomide (2 µM); 0.906 in the assay with Temozolomide (6.325 µM); 0.931 in the assay with Temozolomide (20 µM); 0.48 in assay [1] (first compound 0.2 µM); 0.738 in assay [1] (first compound 0.6325 µM); 0.953 in assay [1] (first compound 2 µM). The relative viability in assay [1] (first compound 6.325 µM) was 0.836; in assay [1] (first compound 20 µM) it was 0.793; with AZD5582 + Trametinib (first compound 0.001581 µM) it was 0.735; in the assay with AZD5582 + Trametinib (first compound 0.005 µM), 0.813; with AZD5582 + Trametinib (first compound 0.01581 µM), 0.712; in the assay with AZD5582 + Trametinib (first compound 0.05 µM), 0.534.
In the case of HCC-366, the relative viability in the assay with AZD5582 (0.001581 µM) turned out to be 0.978; with AZD5582 (0.005 µM), 1.02; with AZD5582 (0.01581 µM) it was 0.978; with AZD5582 (0.05 µM), 1.08; in the assay with Temozolomide (0.2 µM) it was 0.939; in the assay with Temozolomide (0.6325 µM), 1. Further, the relative viability with Temozolomide (2 µM) amounted to 1.08; in the assay with Temozolomide (6.325 µM) it was 0.987; with Temozolomide (20 µM), 0.992; in assay [1] (first compound 0.2 µM) it was 1.07; in assay [1] (first compound 0.6325 µM), 1.18; in assay [1] (first compound 2 µM), 1.14. Moreover, the relative viability in assay [1] (first compound 6.325 µM) was 1.17; in assay [1] (first compound 20 µM) it was 0.918; with AZD5582 + Trametinib (first compound 0.001581 µM), 0.304; with AZD5582 + Trametinib (first compound 0.005 µM) it was 0.339; with AZD5582 + Trametinib (first compound 0.01581 µM) it was 0.413; with AZD5582 + Trametinib (first compound 0.05 µM), 0.458.
As to EPLC-272H, the relative viability with AZD5582 (0.001581 µM) came out at 0.263; in the assay with AZD5582 (0.01581 µM), 0.55; with AZD5582 (0.05 µM), 0.116; in the assay with Temozolomide (0.2 µM) it was 0.98; in the assay with Temozolomide (0.6325 µM), 0.972; with Temozolomide (2 µM) it was 0.997. The relative viability turned out to be 0.859 in the assay with Temozolomide (6.325 µM); 0.677 in the assay with Temozolomide (20 µM); 1.15 in assay [1] (first compound 0.2 µM); 1.01 in assay [1] (first compound 0.6325 µM); 1.12 in assay [1] (first compound 2 µM); 0.996 in assay [1] (first compound 6.325 µM). Moreover, the relative viability in assay [1] (first compound 20 µM) was 0.879; in the assay with AZD5582 + Trametinib (first compound 0.001581 µM), 0.15; with AZD5582 + Trametinib (first compound 0.01581 µM) it was 0.292; with AZD5582 + Trametinib (first compound 0.05 µM), 0.0966.
